Reference: patent US4260601A, “Chemical compounds” (Nyegaard & Co. A/S, priority 1979, dated 1981)
Square brackets hold non-standard residues; d marks the D form. Peptide text beside a SMILES is read from it. pGlu = O=C1CC[C@@H](C(=O)O)N1

Test: anorexigenic / biological activity of the peptide (no method described)

For O=C(O)CNC(=O)[C@H](Cc1c[nH]cn1)NC(=O)[C@@H]1CCC(=O)N1 [synthetic peptide, L-(pyro)glutamyl-L-histidyl-glycine] ([pGlu]-His-Gly-OH), the “biological activity of the synthetic peptide versus the biogenic material isolated from urine” value (comparison with biogenic material isolated from urine) was “comparable biological activity” and the anorexigenic properties (statement in words, peptide found in the urine of patients suffering from severe anorexia) was “possesses interesting anorexigenic properties”.
